# Results: patent US20140200142A1, “TREATMENT OF STORED TUBERS WITH AEROSOLS OF HIGHER ALCOHOLS” (1,4 Group, Inc., priority 2013, published 2014)
# Tests used:
# [1] = test system: existing sprouts on post-dormant potatoes with peeps and sprouts extant; assay: Comparison of thermofogged sprout suppressing chemicals for "burn" of existing sprouts (Example IV); type: in vivo; set-up: key to Burn “old” / Burn “new”: +: indicates fair effectiveness; ++: indicates good effectiveness; +++: indicates excellent effectiveness; A minus (−) sign indicates no noticeable effect; a +/− sign indicates only partial effectiveness at a minimal level; conditions: for Burn “old”: effect upon old sprouts, up to nine months old; for Burn “old” / Burn “new”: thermofogged at comparable dosages; for Burn “new”: newly emerged sprouts and peeps, generally less than a month
# Method: Various sprout suppressing chemicals were compared for their ability to suppress existing sprouts on post-dormant potatoes with peeps and sprouts extant. […] Clove oil applied at a predetermined dosage gave a “burn” effectiveness of 46% of existing peeps while 1-nonanol at a dosage one-fourth as great gave a 50% “burn.” At a one-half dosage, 1-nonanol provided a 100% “burn” effectiveness within 24 hours after treatment. In the above table “Burn old” refers to the effect upon old sprouts, which included sprouts up to nine months old, these being generally more difficult to desiccate, while “burn new” refers to newly emerged sprouts and peeps, generally less than a month or so in existence.
# stored potatoes = conditions: continuous vapors by wicking over an extended period; cited from earlier work
# potatoes = assay: 1-octanol thermofog on cold versus 53° F. potatoes, condensation damage (Example V); type: in vivo
# Method: An experiment was performed wherein 1-octanol at various dosages were applied to potatoes wherein the temperature of the potatoes was at about 36° F. The 1-octanol was applied via an electric thermofogger at a fog temperature within the fogger of about 500° F. to obtain a stable aerosol. The potatoes were examined about 24 hours after treatment. […] The potatoes were cut open at the dark spots. Damage to the flesh of the potatoes existed to a depth of about 5 mm to 25 mm. Potato flesh was otherwise undamaged except under the dark spots.
# [2] = test system: peeps and sprouts on stored potatoes; assay: Thermofog treatment of stored potatoes with 1-nonanol to determine sprout destruction (Example II); type: in vivo
# Method: Stored potatoes in a small open container were treated with 1-nonanol (n-nonyl alcohol) via a thermofogger to determine sprout destruction. The thermofogger was operated at an aerosol chamber temperature of about 500° F. A good stable aerosol was produced. The alcohol was applied at a dosage of 8 ml for 2 kg of potatoes. The system was open so that the actual dosage reaching the potatoes was considerably less than the fogged amount. The potatoes were exposed to the thermofog for approximately one minute, after which the treatment containers (1-gallon bottles) were sealed and held at 53° F. for 24 hours before being connected to normal storage ventilation. In a first test the potatoes had white “peeps” showing from the eyes before treatment. […] In a second test the potatoes were treated with 1-nonanol at the same fogging temperature and dosage for the same period of time to achieve the same application dosage as in Example I. The potatoes in this storage had sprouts averaging in excess of about 2 cm in length. In this experiment, potatoes with very long sprouts, some up to eight cm or more, were treated with 1, 2, and 4 times sequentially with full strength nonanol. […] This “spray-paint” method was thus used to try to bring the total amount (rate) of nonanol up to a level capable of killing large sprouts as well as peeps, a necessity in commercial settings where sprouts of all sizes exist. It required 4 applications to reach the level at which these large sprouts were completely killed. […] While this was a small scale test, a whole storage full of potatoes in this condition would likely lead to secondary decays. Single or even double applications didn't reach a level of nonanol high enough to completely kill these large-sized sprouts.
# peeps and sprouts = assay: Fogging of 1-nonanol versus clove oil, "burning" peeps and sprouts (Example III); type: in vivo, potatoes; conditions: short duration, similar dosages
smiles,measurement,setting,value
CCCCCCO [Hexanol],Burn “old”,[1],+
same,Burn “new”,[1],++
"CC(CCO)CC(C)(C)C (centres unmarked) [3,5,5-trimethyl hexanol]",damage to potato flesh,stored potatoes,"damaged potato flesh, especially near affected eyes"
same,effect on existing sprouts,stored potatoes,strongly “burned” (desiccated) existing sprouts
"CCCCCCCCO [1-Octanol, 1-octanol]",depth of damage to the flesh at the dark spots,"potatoes; potato, in vivo, 24 h",5-25 mm
same,condition of potato skin,"potatoes; potatoes at about 36° F., examined about 24 hours after treatment",large dark damaged spots
same,injury to potato skin or flesh,"potatoes; potatoes held at 53° F., similar dosage, fogging temperature and rate",did not show injury to the potato skin or to its flesh
same,Burn “old”,[1],++
same,Burn “new”,[1],+++
"CCCCCCCCCCO [1-Decanol, 1-decanol]",Burn “old”,[1],++
same,Burn “new”,[1],++
"CCCCCOC(C)=O [AmylAcetate, reference compound]",Burn “new”,[1],++
"CCCCCCCCCO [1-Nonanol, 1-nonanol]",“burn” effectiveness of existing peeps,[1]; dosage one-fourth as great as the clove oil dosage,50%
same,Burn “old”,[1],+++
same,Burn “new”,[1],+++
same,“burn” effectiveness of existing peeps,"[1]; one-half dosage, within 24 hours after treatment",100%
same,effect on white “peeps”,"[2]; first test, 8 ml for 2 kg of potatoes fogged, open system, inspected about 24 hours after treatment",burned to a dark color and were inactivated
same,damage to potato flesh adjacent the eyes,"[2]; first test, about 24 hours after treatment",without any damage to potato flesh adjacent the eyes
same,negative side effect observed,"[2]; second test, 4 applications on large sprouts","wet, slimy, sprout rot"
same,applications required to completely kill large sprouts,"[2]; second test, sprouts up to eight cm or more, sequential full strength applications",4 applications
same,effectiveness in “burning” peeps and sprouts relative to clove oil,peeps and sprouts,about four times as effective as clove oil
CCCCCCCCCCCCO [Dodecanol],Burn “old”,[1],−\+
same,Burn “new”,[1],−
